According to patent US20240425966A1, “GAS-ASSISTED COCRYSTAL DE-SUBLIMATION” (THE REGENTS OF THE UNIVERSITY OF MICHIGAN, priority 2021, published 2024):

Experiments:
[1] = Differential scanning calorimetry (DSC), enthalpy of melting; assay type: physicochemical; details: 40-400° C., 10° C. per minute, initial heating curve
Experimental: (§1) To determine optimal process temperature, differential scanning calorimetry (DSC) and thermogravimetric analysis (TGA) were performed on the pure components, as well as on the cocrystal, shown in FIG. 2. A TA instruments DSC Q200 was used with a 40-400° C. heating range and 10° C. per minute heating rate. Only initial heating curves were collected and analyzed, without a cooling and secondary heating step. The initial melting peak temperature and enthalpy of melting values for each sample was determined using Universal Analysis software from TA instruments. A TA Instruments TGA Q500 was used with a 25-400° C. heating range and a 10° C. per minute heating rate. Powder was placed into a 5 mm diameter aluminum sample pan centered in a platinum hang pan. Enthalpies of sublimation were determined by plotting the logarithm of mass loss rate (−dm/dt) versus inverse temperature (1000/T).

[2] = Thermogravimetric analysis (TGA), enthalpy of sublimation from Arrhenius plot of mass loss rate; assay type: physicochemical; details: for Sublimation ΔHsub: 25-400° C., 10° C. per minute, slope of log mass loss rate versus 1000/T; for Sublimation Tlow: lower temperature of sublimation range; for Sublimation Thigh: upper temperature of sublimation range
Experimental: as §1

[3] = Thermal stability (decomposition temperature); assay type: physicochemical; details: heating
Source text: Thermal analysis provides a good basis to determine the process window for successful cocrystal de-sublimation. The target temperature for the process is preferably in a region where sublimed API and conformer readily remain in the vapor phase. Too low, and the less volatile compound may de-sublimate within the heated tube, altering the ratio of API to conformer reaching a cooled surface (26). Moreover, decreasing temperature reduces sublimation rate and thus restricts the amount of material that can be processed. The upper temperature limit of the process is largely dictated by the thermal stability of each component. For example, CBZ may begin to decompose appreciably before reaching 180° C., limiting the heating temperature to well below its melting temperature. […] On the other hand, IND is stable up to 248° C., well above its melting temperature (27).

[4] = heating; reference (27); cited from earlier work

SMILES	Melting ΔHmelt [1] [kcal/mol]	Sublimation ΔHsub [2] [kcal/mol]	Sublimation Tlow [2] [°C]	Sublimation Thigh [2] [°C]	temperature before which decomposition may begin appreciably [3] [°C]	stable up to (temperature) [4] [°C]
NC(=O)N1c2ccccc2C=Cc2ccccc21 [CBZ, carbamazepine]	6.33	48.59	220	280	< 180	–
COc1ccc2c(c1)c(CC(=O)O)c(C)n2C(=O)c1ccc(Cl)cc1 [IND, indomethacin]	8.01	27.29	200	320	–	248
O=C(O)CCC(=O)O [SUC, succinic acid]	7.89	23.1	140	230	–	–
O=C1NS(=O)(=O)c2ccccc21 [SAC, saccharine]	8.68	25.57	200	290	–	–
